Assay results as given in patent US7998460B2, “Prevention of deficits in neurogenesis with anti-inflammatory agents” (The Board of Trustees of the Leland Stanford Junior …, priority 2003, dated 2011).

Legend:
[1] = Sickness behavior after LPS in rats; assay type: in vivo, rat; conditions: LPS 1 mg/Kg i.p. one time
Experimental: LPS exposure. Bacterial lipopolysaccharide (LPS, Sigma, St Louis, Mo.) was administered in sterile saline by intraperitoneal injection at a dose of 1 mg/Kg one time. This caused mild sickness behavior (decreased grooming, decreased locomotor activity, increased piloerection) for approximately 2 days, resolving by the 3rd day. The dose of LPS chosen causes mild sickness behavior in rats that resolves within 1-2 days; the dose of LPS used to induce endotoxic shock is 10-fold higher than that used in the present study.

hippocampal neurogenesis = experiment: LPS-induced transient illness, microglia and hippocampal neurogenesis in mice; assay type: in vivo, mouse
Experimental: To investigate whether an LPS challenge produces more chronic effects on neurogenesis, adult female C57BI/6 mice were injected intraperitoneally (i.p.) with 0, 5, 7.5 and 10 mg/kg of LPS and subcutaneously with sterile saline to prevent dehydration. Mice were then injected once daily over the next 6 days with the cell synthesis marker bromodeoxyuridine (BrdU; 50 mg/kg) to label dividing progenitor cells. Histology was performed on sections from mice that were perfused on Day 7 or Day 28. The number of BrdU-labeled (new) or IBA-1-labeled (monocyte/microglial) cells was estimated through hippocampal sets stereologically using enzyme substrate immunohistochemistry and light microscopy and BrdU-labeled cell phenotypes and IBA-1-labeled activation was determined using immunofluorescence and confocal microscopy.
Subjects. All mice used as subjects in this study were treated in accordance with the policies set forth by the Stanford Animal Care and Use Committee and NIH regarding the ethical use of animals for experimentation. CB57BI/6 mice (7 wks old upon arrival from -Taconic) were housed in groups of 4-5 in autoclaved shoebox cages under standard conditions and were given free access to autoclaved Prolab Mouse 3000 chow (PMI Nutrition International, St. Louis, Mo.) and autoclaved tap water. One week after arrival, vehicle- and NSAID-treated mice were given an intraperitoneal (i.p.) injection of sterile saline or lipopolysaccharide (LPS; 5 mg/kg at a concentration of 1 mg/ml isotonic saline; Sigma Aldrich, St. Louis, Mo.) to induce transient illness (Day 0) and daily subcutaneous (s.c.) isotonic saline (0.5 ml) injections (Days 0-3) to prevent illness-induced dehydration. The cell synthesis marker bromodeoxyuridine (BrdU; Sigma Aldrich, St. Louis, Mo.) was injected i.p. (50 mg/kg at a concentration of 10 mg/ml in freshly prepared isotonic saline) once per day for 6 days to label dividing cells, beginning Day 0 (2 h after LPS). The mice were anesthetized with ketamine/xylazine and killed at Days 7 or 28 (to assess hippocampal neurogenesis during illness and just before behavioral testing, respectively) or Day 80 (to measure hippocampal neurogenesis following behavioural testing) by perfusion with 4% paraformaldehyde. Brains were post-fixed overnight in perfusate, microtome sectioned at 40 μm through the hippocampus and stored in tissue cryoprotectant solution at −20° C. until processed immunohistochemically.
Histology and Immunohistochemistry. Free floating sections were immunostained as described previously using the following primary antibodies and working concentrations: rat anti-bromodeoxyuridine (1:500; Accurate, Westbury, N.J.) goat anti-doublecortin (1:500; Santa Cruz, Calif.), rabbit anti-[…] (1:2000; WAKO, Los Angeles, Calif.), rabbit anti-FA-11 (CD68; 1:200; Serotec, Raleigh, N.C.), guinea pig anti-GFAP (1:750; Harlan, Indianapolis, Ind.), rabbit anti-NG2 (1:2000; a gift from W. Stallcup), mouse anti-NeuN (1:500; Chemicon; Temeculah, Calif.). Tissue was incubated in all primary antibodies ovemight (and in anti-BrdU for 48 h) at 4° C. Phenotyping sets were incubated in minimally cross-reactive secondary IGg conjugated fluorophores (1:500; Jackson Immunoresearch, West Grove, Pa.) overnight at 4° C. and coverslipped under PVA-DABCO.
Cell Counting and Unbiased Stereology. BrdU-labeled cells were phenotyped and total BrdU-labeled and […] cell numbers stereologically estimated if they were located in the hippocampal granule cell layer proper and subgranular zone (the neurogenic zone that includes a 50 μm border between the hilus and granule cell layer). BrdU-labeled cells were phenotyped on immunofluroescent stained sections that were anatomically matched using a Zeiss 510 Meta confocal microscope using a multi-channel configuration with a 40× objective and electronic zoom of 2.3. Appropriate gain and black level was set using control sections stained with secondary antibodies alone. […]

[2] = Mortality with indomethacin in mice; assay type: in vivo, mouse; conditions: higher dose (5 mg/kg BID)
Description: The propensity of NSAIDs to induce ulceration and bleeding often outweigh the anti-inflammatory benefits. […] NSAIDs that more selectively target Cox-2, such as roficoxib and celecoxib, are well tolerated and have been widely used as alternatives to broad spectrum NSAIDs for controlling inflammation. In addition, the selective agonism of PPAR-γ is an effective anti-inflammatory strategy, e.g., through administration of thiazolidinediones such as rosiglitazone or pioglitizone. […] Mice were started on a 16 day preventative course of oral NSAID and then challenged with a single IP injection of LPS (5 mg/kg) and then BrdU (50 mg/kg) over 6 days beginning 2 h after LPS. The mice were either perfused 28 days after LPS injection, or trained and tested in the Morris water maze.
NSAID treatment. One half of the saline- and LPS-treated mice were fed non-steroidal anti-inflammatory drug (NSAID), in low fat strawberry milk, twice per day for two weeks following LPS injection (Days 0-13). The mice were initially introduced to low fat strawberry milk (Berkeley Farms, Calif.; 200 μl per animal) in their home cages, four days before LPS was injected (Days […]) and were then placed in a PVC tube (10-cm diameter×18-cm height), twice per day (12 h apart) beginning two days before LPS was injected (Days −2 and −1) until they consumed a 100 μl volume of low fat strawberry milk. […]

[3] = dentate gyri, 4 weeks after LPS

With lipopolysaccharide [LPS] the “duration of mild sickness behavior” value [1] was “approximately 2 days”, the “reduction in the net number of new neurons” value (hippocampal neurogenesis; 4 weeks after LPS challenge) was 45-55% and the “reduction of BrdU positive cells colabeled with NeuN” value (hippocampal neurogenesis; 4 weeks after LPS challenge) was “≈ 57%”. The “reduction of BrdU-positive cells colabeled with DCX/NeuN” value (hippocampal neurogenesis; 4 weeks after LPS challenge) was “≈ 44%”, the “total number of BrdU positive cells vs vehicle” value (hippocampal neurogenesis; 6 and 28 d after injection) was “similar” and the “activation (FA-11/CD68) intensity on IBA-1 positive cells vs vehicle” value (hippocampal neurogenesis; [3]) was 1.25 fold. The “total IBA-1 positive cell number vs vehicle” value (hippocampal neurogenesis; [3]) was “similar” and the “reduction of BrdU positive cells colabeled with DCX/NeuN” value (hippocampal neurogenesis; week following LPS challenge, independent of LPS dose) was “≈ 41%”.
In the case of `COc1ccc2c(c1)c(CC(=O)O)c(C)n2C(=O)c1ccc(Cl)cc1` [indomethacin], the mortality [2] is reported as 100%.
